± gives the standard deviation of the reports.
SMILES | glass transition temperature
*c1ccc(Oc2cc3ccccc3cc2Oc2ccc(N3C(=O)c4ccc(Oc5ccccc5Oc5ccc6c(c5)C(=O)N(*)C6=O)cc4C3=O)cc2)cc1 (repeat unit) | 216.00 °C
*CCC(Cl)C(*)Cl (repeat unit) | 70.00 °C
*CC1CCC(CNC(=O)c2cc(C(=O)N*)cc(C(C)(C)C)c2)CC1 (repeat unit) | 236.00 °C
*O[Si](*)(C)OCCOCCOCCOCCOCCOCCOCCOCCOC (repeat unit) | -78.00 °C
*OP(=O)(Oc1ccc(C)cc1)Oc1ccc(S(=O)(=O)c2ccc(*)cc2)cc1 (repeat unit) | 66.00 °C
*c1cccc(C(=O)Nc2ccc(Oc3ccc(C(C)(C)c4ccc(Oc5ccc(NC(=O)c6cccc(N7C(=O)c8ccc(-c9ccc%10c(c9)C(=O)N(*)C%10=O)cc8C7=O)c6)cc5)cc4)cc3)cc2)c1 (repeat unit) | 257.00 °C
*CCN(*)C(=O)CCCCCCC (repeat unit) | 10.00 °C
*N(C)[Si](*)(C)C (repeat unit) | -20.00 °C
*CC(*)CCCCCC (repeat unit) [Poly(hexylethylene)] | -54.58 ± 0.8 °C
*CCOC(=O)Nc1ccc(CCc2ccc(NC(=O)O*)cc2)cc1 (repeat unit) | 116.90 °C
*CC(*)(C)C(=O)OCCO[N+](=O)[O-] (repeat unit) | 55.00 °C
*c1ccc(Cc2ccc(N3C(=O)c4ccc([Si](C)(C)c5ccc6c(c5)C(=O)N(*)C6=O)cc4C3=O)cc2)cc1 (repeat unit) | 280.00 °C
*Oc1ccc(C(C)(C)c2ccc(OC(*)=O)c(C(C)C)c2)cc1C(C)C (repeat unit) | 80.00 °C
*COc1ccc(C(c2ccc(OCC3(*)COC3)cc2)(C(F)(F)F)C(F)(F)F)cc1 (repeat unit) | 134.00 °C
*O[Si](C)(C)CC[Si](*)(C)C (repeat unit) | -88.00 °C
*CC(*)C(=O)OCCCC (repeat unit) [Poly(tert-butyl acrylate)] | -51.58 ± 45 °C
*OC(=O)c1cccc(C(*)=O)c1 (repeat unit) | 130.00 °C
*Oc1ccc(P(C)(=O)c2ccc(Oc3ccc(P(=O)(c4ccccc4)c4ccc(*)cc4)cc3)cc2)cc1 (repeat unit) | 238.00 °C
*NCCCCCCNc1nc(*)nc(-c2ccccc2)n1 (repeat unit) | 95.00 °C
*Oc1ccc(/N=C(\C)c2ccc(Oc3ccc(C(C)(C)c4ccc(Oc5ccc(/C(C)=N/c6ccc(*)cc6)cc5)cc4)cc3)cc2)cc1 (repeat unit) | 141.00 °C
*c1ccc(/C=C/c2cc(OCC(CC)CCCC)c(/C=C/c3ccc(N(*)c4ccccc4)cc3)cc2OC)cc1 (repeat unit) | 147.00 °C

Continued, values first:

glass transition temperature | SMILES
23.00 °C | *CC(*)(C)C(=O)OCCCCC(F)(F)C(F)(F)C(F)(F)C(F)(F)F (repeat unit)
262.00 °C | *c1ccc(Oc2ccc(NC(=O)c3ccc(Oc4ccc5c(c4)C(=O)N(*)C5=O)cc3)cc2)cc1 (repeat unit)
68.50 °C | *CCCCCCCCCCOc1c(OC)cc(/C=C/c2ccc(/C=C/c3cc(OC)c(O*)c(OC)c3)cc2)cc1OC (repeat unit)
62.00 °C | *CCCCCCCCOc1c(OC)cc(/C=C2\CCC/C(=C\c3cc(OC)c(O*)c(OC)c3)C2=O)cc1OC (repeat unit)
126.00 °C | *c1ccc(-c2cc3c(ccc4ccccc43)cc2-c2ccc(N(*)c3ccc(C)cc3)cc2)cc1 (repeat unit)
74.00 °C | *OC(=O)C(Cc1ccccc1)NC(=O)CCCCCCCCC(=O)NC(Cc1ccccc1)C(=O)OC1COC2C(*)COC12 (repeat unit)
65.00 °C | *CCCS(=O)(=O)CCCCS(=O)(=O)CCCOC(=O)c1cccc(C(=O)O*)c1 (repeat unit)
225.00 °C | *C(=O)Oc1ccc(C23CC4CC(CC(C4)C2)C3)c(OC(=O)c2ccc3c(c2)C(=O)N(c2ccc(-c4ccc(N5C(=O)c6ccc(*)cc6C5=O)cc4C)c(C)c2)C3=O)c1 (repeat unit)
190.00 °C | *CCCCN1C(=O)c2ccc(C(c3ccc4c(c3)C(=O)N(*)C4=O)(C(F)(F)F)C(F)(F)F)cc2C1=O (repeat unit)
164.00 °C | */C=C/c1ccc(*)c(-c2cc(OCCC(C)C)c(OCCC(C)C)cc2-c2ccccc2)c1 (repeat unit)
288.00 °C | *c1ccc(Sc2ccc(-c3nc4ccc(-c5ccc6nc(*)c(-c7ccccc7)nc6c5)cc4nc3-c3ccccc3)cc2)cc1 (repeat unit)
128.00 °C | *Oc1ccc(C(=O)c2ccc(Oc3ccc(C(=O)c4ccc(Oc5ccc(Cc6ccc(*)cc6)cc5)cc4)cc3)cc2)cc1 (repeat unit)
230.00 °C | *Oc1ccc(Oc2ccc(Oc3ccc(NC(=O)c4cc(C(=O)Nc5ccc(*)cc5)cc(C(C)(C)C)c4)cc3)cc2)cc1 (repeat unit)
385.00 °C | *c1ccc(-c2ccc(-n3c(=O)c4c(C(F)(F)F)c5c(=O)n(*)c(=O)c5c(C(F)(F)F)c4c3=O)cc2C)c(C)c1 (repeat unit)
114.50 °C | *Oc1ccc(Oc2ccc(OC(=O)NC(=O)c3cc(C(=O)NC(*)=O)cc(C(C)(C)C)c3)cc2)cc1 (repeat unit)
255.00 °C | *Oc1ccc(S(=O)(=O)c2ccc3cc(S(=O)(=O)c4ccc(Oc5ccc(-c6ccc(*)cc6)cc5)cc4)ccc3c2)cc1 (repeat unit)
232.00 °C | *N/C(C#N)=C(\C#N)NC(=O)c1ccc(C(*)=O)cc1 (repeat unit)
116.00 °C | *CCCCCCCCCCOc1ccc(-c2cc(-c3ccccc3)c(-c3ccc(NC(=O)c4ccc(C(=O)Nc5ccc(-c6c(-c7ccccc7)cc(-c7ccc(O*)cc7)cc6-c6ccccc6)cc5)cc4)cc3)c(-c3ccccc3)c2)cc1 (repeat unit)
180.00 °C | *Oc1ccc(C(=O)NNC(=O)c2cccc(C(=O)NNC(=O)c3ccc(OC(=O)c4cccc(C(*)=O)c4)cc3)c2)cc1 (repeat unit)
125.00 °C | *CCOCCOCCOCCOCCOCCOc1ccc(C(=O)Nc2cc(NC(=O)c3ccc(O*)cc3)cc(-c3nc4ccccc4[nH]3)c2)cc1 (repeat unit)
140.00 °C | *C(=O)Oc1ccc(OCCCCCCCCCCCCOc2ccc(OC(=O)c3ccc4c(c3)C(=O)N(c3ccc(S(=O)(=O)c5ccc(N6C(=O)c7ccc(*)cc7C6=O)cc5)cc3)C4=O)cc2)cc1 (repeat unit)
290.00 °C | *C(=O)c1ccc2c(c1)C(=O)N(c1ccc(Cc3ccc(C(=O)c4cccc(N5C(=O)c6ccc(*)cc6C5=O)c4)cc3)cc1)C2=O (repeat unit)
272.00 °C | *C(=O)Nc1ccc(Oc2ccc(C3(c4ccc(Oc5ccc(NC(=O)c6ccc7c(c6)C(=O)N(c6ccc(Oc8cccc(N9C(=O)c%10ccc(*)cc%10C9=O)c8)cc6)C7=O)cc5)cc4)NC(=O)c4ccccc43)cc2)cc1 (repeat unit)
227.00 °C | *c1ccc(-n2c(=O)c3cc4c(=O)n(*)c(=O)c4cc3c2=O)c(S(=O)(=O)[O][Na])c1 (repeat unit)
185.00 °C | *CC(*)(C)C(=O)Oc1ccc(/N=N/c2ccc(C#N)cc2)cc1 (repeat unit)
